Measured values reported in patent US10189845B2, “4,6-substituted-pyrazolo[1,5-a]pyrazines as janus kinase inhibitors” (ARRAY BIOPHARMA INC., priority 2014, dated 2019).
Where a name gives a salt, the structure may show the parent alone. Read-outs that look alike come from different tables or passages of the source.

Columns and labels:
Type in all cases: biochemical
[1] = target: Human Tyk2 kinase domain (Homo sapiens (Human), UniProt P29597); experiment: Tyk2 Inhibition Assay (Example A, Omnia kinase fluorescence peptide substrate assay); settings: TYK2 Enzyme IC50 1 mM ATP, averaged IC50 ranges
Sequence of Human Tyk2 kinase domain (P29597 886-1187): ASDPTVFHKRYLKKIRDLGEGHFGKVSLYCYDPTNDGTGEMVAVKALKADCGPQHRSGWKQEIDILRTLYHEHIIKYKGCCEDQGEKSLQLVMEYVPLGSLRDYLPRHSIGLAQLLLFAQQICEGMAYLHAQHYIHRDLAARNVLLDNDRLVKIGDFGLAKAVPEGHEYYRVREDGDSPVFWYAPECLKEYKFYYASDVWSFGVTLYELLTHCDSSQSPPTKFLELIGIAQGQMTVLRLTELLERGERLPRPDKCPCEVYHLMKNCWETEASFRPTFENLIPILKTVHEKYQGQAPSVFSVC
How it was run: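 Omnia Sox-peptide kinetic fluorescence assay (ex 360/em 485 nm, read every 50 s for 45 min) with 1 nM human Tyk2 kinase domain (aa 886–1187, His tag cleaved, baculovirus-expressed), 1 mM ATP, 8 μM Omnia Y12 peptide, in 25 mM HEPES pH 7.4, 10 mM MgCl2, 0.01% Triton X-100, 1 mM DTT, 2% DMSO. IC50 from 4-parameter logistic fit of percent of control.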

[2] = target: JAK1 (Homo sapiens (Human), UniProt P23458); experiment: JAK1 Inhibition Assay (Example B, Omnia kinase fluorescence peptide substrate assay)
Sequence of JAK1 (P23458 whole entry): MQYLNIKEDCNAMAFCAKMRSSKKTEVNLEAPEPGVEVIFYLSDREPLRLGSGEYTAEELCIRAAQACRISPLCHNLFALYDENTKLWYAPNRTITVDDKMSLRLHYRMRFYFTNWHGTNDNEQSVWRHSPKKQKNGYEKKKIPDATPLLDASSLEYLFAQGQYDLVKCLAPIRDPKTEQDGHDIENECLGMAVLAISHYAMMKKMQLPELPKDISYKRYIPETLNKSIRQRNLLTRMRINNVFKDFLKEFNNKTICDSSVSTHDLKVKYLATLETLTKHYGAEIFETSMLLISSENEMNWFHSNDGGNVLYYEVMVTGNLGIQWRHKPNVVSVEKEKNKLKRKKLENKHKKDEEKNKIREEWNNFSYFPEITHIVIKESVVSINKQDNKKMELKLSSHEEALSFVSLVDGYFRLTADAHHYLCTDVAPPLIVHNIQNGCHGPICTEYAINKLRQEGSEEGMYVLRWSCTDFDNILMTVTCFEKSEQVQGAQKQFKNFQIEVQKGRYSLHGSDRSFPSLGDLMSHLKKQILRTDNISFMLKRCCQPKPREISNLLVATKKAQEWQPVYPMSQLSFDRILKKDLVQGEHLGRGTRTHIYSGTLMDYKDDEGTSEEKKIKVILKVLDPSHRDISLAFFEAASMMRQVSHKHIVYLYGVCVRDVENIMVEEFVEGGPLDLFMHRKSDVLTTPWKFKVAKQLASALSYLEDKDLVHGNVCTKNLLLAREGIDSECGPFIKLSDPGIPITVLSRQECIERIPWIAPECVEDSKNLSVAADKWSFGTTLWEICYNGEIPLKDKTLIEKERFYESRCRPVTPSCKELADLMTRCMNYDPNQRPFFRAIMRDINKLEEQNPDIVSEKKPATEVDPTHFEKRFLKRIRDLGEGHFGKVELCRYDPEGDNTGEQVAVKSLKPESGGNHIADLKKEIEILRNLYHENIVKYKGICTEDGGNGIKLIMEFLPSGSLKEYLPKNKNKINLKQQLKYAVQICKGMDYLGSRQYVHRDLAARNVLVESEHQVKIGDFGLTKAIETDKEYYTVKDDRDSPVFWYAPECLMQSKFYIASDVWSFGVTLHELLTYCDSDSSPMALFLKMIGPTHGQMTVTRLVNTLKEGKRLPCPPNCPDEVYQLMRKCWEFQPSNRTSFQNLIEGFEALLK
How it was run: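 Recombinant human JAK1 (12.5 nM) with 1 mM ATP and 8 μM Omnia Y12 Sox-peptide in 25 mM HEPES pH 7.4, 10 mM MgCl2, 0.01% Triton X-100, 1 mM DTT, 2% DMSO final. Phosphorylation read kinetically (ex 360/em 485 nm, 45 min); IC50 from 4-parameter fit of percent of control.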

[3] = target: JAK2 (Homo sapiens (Human), UniProt O60674); experiment: JAK2 Inhibition Assay (Example C, Omnia kinase fluorescence peptide substrate assay); settings: JAK2 Enzyme IC50 1 mM ATP, averaged IC50 ranges
Sequence of JAK2 (O60674 whole entry): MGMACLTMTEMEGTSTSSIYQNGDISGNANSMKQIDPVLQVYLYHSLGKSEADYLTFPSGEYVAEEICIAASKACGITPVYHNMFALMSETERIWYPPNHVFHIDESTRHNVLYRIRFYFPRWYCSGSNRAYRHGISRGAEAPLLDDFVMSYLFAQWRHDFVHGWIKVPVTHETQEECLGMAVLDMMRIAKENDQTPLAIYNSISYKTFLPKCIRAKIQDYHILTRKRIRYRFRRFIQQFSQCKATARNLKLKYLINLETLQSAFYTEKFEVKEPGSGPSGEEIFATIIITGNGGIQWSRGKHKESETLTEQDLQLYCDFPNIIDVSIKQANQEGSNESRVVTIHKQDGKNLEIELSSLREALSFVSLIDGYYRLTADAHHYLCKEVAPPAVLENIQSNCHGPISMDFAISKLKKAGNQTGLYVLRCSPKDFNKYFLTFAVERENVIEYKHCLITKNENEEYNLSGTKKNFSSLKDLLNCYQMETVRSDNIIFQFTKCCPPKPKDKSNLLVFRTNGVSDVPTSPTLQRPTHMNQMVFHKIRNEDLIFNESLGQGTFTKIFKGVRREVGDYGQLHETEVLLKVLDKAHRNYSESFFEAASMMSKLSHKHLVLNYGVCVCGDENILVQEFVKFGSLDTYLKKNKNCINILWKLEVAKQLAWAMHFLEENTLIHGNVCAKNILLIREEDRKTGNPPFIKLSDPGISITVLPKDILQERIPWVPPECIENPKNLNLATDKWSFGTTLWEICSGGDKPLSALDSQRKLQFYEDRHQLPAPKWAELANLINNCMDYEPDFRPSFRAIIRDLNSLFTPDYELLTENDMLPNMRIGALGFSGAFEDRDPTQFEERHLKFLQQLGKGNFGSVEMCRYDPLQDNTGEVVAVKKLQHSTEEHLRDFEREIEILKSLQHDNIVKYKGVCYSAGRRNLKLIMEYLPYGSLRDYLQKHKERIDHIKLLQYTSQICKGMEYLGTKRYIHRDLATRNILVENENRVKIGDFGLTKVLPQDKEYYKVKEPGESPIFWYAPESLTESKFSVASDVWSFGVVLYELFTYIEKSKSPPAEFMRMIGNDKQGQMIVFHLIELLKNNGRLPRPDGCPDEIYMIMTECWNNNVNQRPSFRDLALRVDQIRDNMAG
How it was run: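 4 nM JAK2 with 1 mM ATP and 10 μM Omnia Y7 peptide in 25 mM HEPES pH 7.4, 10 mM MgCl2, 0.01% Triton X-100, 1 mM DTT, 2% DMSO. Sox fluorescence (ex 360/em 485 nm) read every 50 s for 45 min; IC50 from 4-parameter fit of percent of control.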

[4] = target: JAK3 (Homo sapiens (Human), UniProt P52333); experiment: JAK3 Inhibition Assay (Example D, Omnia kinase fluorescence peptide substrate assay)
Sequence of JAK3 (P52333 whole entry): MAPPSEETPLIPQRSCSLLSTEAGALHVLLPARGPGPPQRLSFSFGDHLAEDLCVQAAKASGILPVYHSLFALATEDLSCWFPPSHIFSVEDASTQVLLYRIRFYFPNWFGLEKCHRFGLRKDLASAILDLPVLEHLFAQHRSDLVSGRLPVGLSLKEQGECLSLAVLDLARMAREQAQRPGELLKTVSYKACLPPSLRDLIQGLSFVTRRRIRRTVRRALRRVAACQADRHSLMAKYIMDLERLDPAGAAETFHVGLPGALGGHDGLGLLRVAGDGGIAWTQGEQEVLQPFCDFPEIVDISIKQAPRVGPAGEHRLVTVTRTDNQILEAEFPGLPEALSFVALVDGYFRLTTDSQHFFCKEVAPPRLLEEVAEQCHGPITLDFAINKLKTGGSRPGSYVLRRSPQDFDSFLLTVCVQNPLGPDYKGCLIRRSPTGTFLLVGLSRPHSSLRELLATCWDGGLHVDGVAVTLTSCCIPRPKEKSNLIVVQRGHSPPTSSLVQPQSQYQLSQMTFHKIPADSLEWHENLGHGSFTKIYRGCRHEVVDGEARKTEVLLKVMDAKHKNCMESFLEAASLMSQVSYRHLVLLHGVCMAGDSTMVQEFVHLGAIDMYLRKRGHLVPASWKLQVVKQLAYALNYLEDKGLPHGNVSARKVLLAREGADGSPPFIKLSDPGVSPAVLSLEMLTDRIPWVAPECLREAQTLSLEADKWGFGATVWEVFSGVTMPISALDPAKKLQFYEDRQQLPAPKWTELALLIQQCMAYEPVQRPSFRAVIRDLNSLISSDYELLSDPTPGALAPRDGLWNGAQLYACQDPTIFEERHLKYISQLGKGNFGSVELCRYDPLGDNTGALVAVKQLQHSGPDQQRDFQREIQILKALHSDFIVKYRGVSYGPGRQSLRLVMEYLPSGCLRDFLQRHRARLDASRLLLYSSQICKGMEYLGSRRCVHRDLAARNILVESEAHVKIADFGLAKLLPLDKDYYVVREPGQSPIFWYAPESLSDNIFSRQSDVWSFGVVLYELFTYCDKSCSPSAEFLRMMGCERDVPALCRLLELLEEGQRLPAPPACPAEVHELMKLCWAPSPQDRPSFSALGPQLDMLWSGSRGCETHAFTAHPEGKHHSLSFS
How it was run: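 Mixture held 2 nM JAK3, 1 mM ATP and 10 μM Omnia Y7 peptide in 25 mM HEPES pH 7.4, 10 mM MgCl2, 0.01% Triton X-100, 1 mM DTT, 2% DMSO final. Sox fluorescence (ex 360/em 485 nm) was read every 50 s for 45 min. IC50 came from a 4-parameter logistic fit of percent of control.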

[5] = JAK1 Enzyme IC50 1 mM ATP, 1 mM ATP, averaged IC50 ranges

IC50 [1] [nM]	IC50 [2, 5] [nM]	IC50 [3] [nM]	IC50 [4] [nM]	IC50 [2] [nM]	Compound
10 to 100	100 to 1000	10 to 100	1000 to 10000		CCC(CC)n1cc(-c2nc(-c3cnn(C4CN(C(=O)CN5CCCC5)C4)c3)cn3nccc23)cn1 [Example 181, 1-(3-(4-(4-(1-(pentan-3-yl)-1H-pyrazol-4-yl)pyrazolo[1,5-a]pyrazin-6-yl)-1H-pyrazol-1-yl)azetidin-1-yl)-2-(pyrrolidin-1-yl)ethanone]
100 to 1000	1000 to 10000	100 to 1000	1000 to 10000		CC[C@@H](n1cc(-c2nc(-c3cnn(C[C@@H](O)CO)c3)cn3nccc23)cn1)C(C)(F)F (single isomer, unassigned) [Example 199]
10 to 100		10 to 100	1000 to 10000	100 to 1000	CCC(CC)n1cc(-c2nc(-c3cnn([C@H]4C[C@@H](CO)C4)c3)cn3nccc23)cn1 [compound 166, (cis-3-(4-(4-(1-(pentan-3-yl)-1H-pyrazol-4-yl)pyrazolo[1,5-a]pyrazin-6-yl)-1H-pyrazol-1-yl)cyclobutyl)methanol]
100 to 1000		100 to 1000	1000 to 10000	1000 to 10000	Cn1cc(-c2cn3nccc3c(-c3cnn(C4CCCC4O)c3)n2)cn1 (stereo not shown) [Example 53, 2-(4-(6-(1-methyl-1H-pyrazol-4-yl)pyrazolo[1,5-a]pyrazin-4-yl)-1H-pyrazol-1-yl)cyclopentanol]
10 to 100	100 to 1000	10 to 100	1000 to 10000		CCC(CC)n1cc(-c2nc(-c3cnn([C@H]4CCC[C@@H]4O)c3)cn3nccc23)cn1 (single isomer, unassigned) [Example 154]
10 to 100		10 to 100	1000 to 10000	1000 to 10000	CCC(CC)n1cc(-c2nc(-c3cnn(C[C@H](O)C(C)(C)O)c3)cn3nccc23)cn1 [Example 56, (S)-3-methyl-1-(4-(4-(1-(pentan-3-yl)-1H-pyrazol-4-yl)pyrazolo[1,5-a]pyrazin-6-yl)-1H-pyrazol-1-yl)butane-2,3-diol]
10 to 100		10 to 100	1000 to 10000	100 to 1000	CCC(CC)n1cc(-c2nc(-c3cnn([C@H]4C[C@@H](C(=O)N(C)C)C4)c3)cn3nccc23)cn1 [Example 170, (1s,3s)-N,N-dimethyl-3-(4-(4-(1-(pentan-3-yl)-1H-pyrazol-4-yl)pyrazolo[1,5-a]pyrazin-6-yl)-1H-pyrazol-1-yl)cyclobutanecarboxamide]
10 to 100		10 to 100	1000 to 10000	10 to 100	CCC(CC)n1cc(-c2nc(-c3cnn(CCNC4CC4)c3)cn3nccc23)cn1 [Example 134, N-(2-(4-(4-(1-(pentan-3-yl)-1H-pyrazol-4-yl)pyrazolo[1,5-a]pyrazin-6-yl)-1H-pyrazol-1-yl)ethyl)cyclopropanamine trifluoroacetate]
10 to 100	1000 to 10000	10 to 100	1000 to 10000		CCC(CC)n1cc(-c2nc(-c3cnn(C[C@H](O)CNC)c3)cn3nccc23)cn1 [Example 100, (R)-1-(methylamino)-3-(4-(4-(1-(pentan-3-yl)-1H-pyrazol-4-yl)pyrazolo[1,5-a]pyrazin-6-yl)-1H-pyrazol-1-yl)propan-2-ol]
100 to 1000	1000 to 10000	100 to 1000	1000 to 10000		CCC(CC)n1cc(-c2nc(-c3cnn(C4CN(C(=O)CN5CC(O)C5)C4)c3)cn3nccc23)cn1 [Example 180, 2-(3-hydroxyazetidin-1-yl)-1-(3-(4-(4-(1-(pentan-3-yl)-1H-pyrazol-4-yl)pyrazolo[1,5-a]pyrazin-6-yl)-1H-pyrazol-1-yl)azetidin-1-yl)ethanone]
1000 to 10000		1000 to 10000	1000 to 10000	1000 to 10000	CCC(CO)n1cc(-c2nc(-c3cnn(C)c3)cn3nccc23)cn1 (stereo not shown) [Example 45, 2-(4-(6-(1-methyl-1H-pyrazol-4-yl)pyrazolo[1,5-a]pyrazin-4-yl)-1H-pyrazol-1-yl)butan-1-ol]
100 to 1000		100 to 1000	1000 to 10000	1000 to 10000	CC(C)n1cc(-c2nc(-c3cnn(C4CCNCC4)c3)cn3nccc23)cn1 [Example 26, 4-(1-isopropyl-1H-pyrazol-4-yl)-6-(1-(piperidin-4-yl)-1H-pyrazol-4-yl)pyrazolo[1,5 a]pyrazine]
100 to 1000		10 to 100	1000 to 10000	1000 to 10000	CCC(CC)n1cc(-c2nc(-c3cnn(CCN[C@@H]4CCN(C)C4=O)c3)cn3nccc23)cn1 [Example 143, (R)-1-methyl-3-((2-(4-(4-(1-(pentan-3-yl)-1H-pyrazol-4-yl)pyrazolo[1,5-a]pyrazin-6-yl)-1H-pyrazol-1-yl)ethyl)amino)pyrrolidin-2-one]
10 to 100		10 to 100	1000 to 10000	1000 to 10000	CCC(CC)n1cc(-c2nc(-c3cnn(CCN(C)C)c3)cn3nccc23)cn1 [Example 10, N,N-dimethyl-2-(4-(4-(1-(pentan-3-yl)-1H-pyrazol-4-yl)pyrazolo[1,5-a]pyrazin-6-yl)-1H-pyrazol-1-yl)ethanamine]
100 to 1000	1000 to 10000	100 to 1000	1000 to 10000		CCC(CC)n1cc(-c2nc(-c3cnn([C@H]4CCC[C@H]4O)c3)cn3nccc23)cn1 (single isomer, unassigned) [compound 190]
10 to 100	100 to 1000	10 to 100	1000 to 10000		CCC(CC)n1cc(-c2nc(-c3cnn(CC[C@H](O)CO)c3)cn3nccc23)cn1 [Example 62, (S)-4-(4-(4-(1-(pentan-3-yl)-1H-pyrazol-4-yl)pyrazolo[1,5-a]pyrazin-6-yl)-1H-pyrazol-1-yl)butane-1,2-diol]
100 to 1000		100 to 1000	1000 to 10000	1000 to 10000	CCC(CC)n1cc(-c2nc(-c3cnn(CC(O)C(C)(C)C)c3)cn3nccc23)cn1 (stereo not shown) [Example 112, 3,3-dimethyl-1-(4-(4-(1-(pentan-3-yl)-1H-pyrazol-4-yl)pyrazolo[1,5-a]pyrazin-6-yl)-1H-pyrazol-1-yl)butan-2-ol]
10 to 100		10 to 100	1000 to 10000	100 to 1000	CCC(CC)n1cc(-c2nc(-c3cnn(CCN4CCNC(=O)C4)c3)cn3nccc23)cn1 [Example 144, 4-(2-(4-(4-(1-(pentan-3-yl)-1H-pyrazol-4-yl)pyrazolo[1,5-a]pyrazin-6-yl)-1H-pyrazol-1-yl)ethyl)piperazin-2-one]
10 to 100		10 to 100	1000 to 10000	100 to 1000	CCC(CC)n1cc(-c2nc(-c3cnn(C[C@](C)(O)CO)c3)cn3nccc23)cn1 (single isomer, unassigned) [Example 203]
10 to 100	100 to 1000	10 to 100	1000 to 10000		CCC(CC)n1cc(-c2nc(-c3cnn(C[C@@H](O)CO)c3)cn3nccc23)cn1 [Example 54, (R)-3-(4-(4-(1-(pentan-3-yl)-1H-pyrazol-4-yl)pyrazolo[1,5-a]pyrazin-6-yl)-1H-pyrazol-1-yl)propane-1,2-diol]
10 to 100		10 to 100	1000 to 10000	100 to 1000	CCC(CC)n1cc(-c2nc(-c3cnn(C[C@@H](O)COC)c3)cn3nccc23)cn1 [Example 107, (R)-1-methoxy-3-(4-(4-(1-(pentan-3-yl)-1H-pyrazol-4-yl)pyrazolo[1,5-a]pyrazin-6-yl)-1H-pyrazol-1-yl)propan-2-ol]
10 to 100		10 to 100	1000 to 10000	1000 to 10000	CCC(CC)n1cc(-c2nc(-c3cnn(C[C@H](O)CCO)c3)cn3nccc23)cn1 (single isomer, unassigned) [compound 201]
100 to 1000		100 to 1000	1000 to 10000	1000 to 10000	Cn1cc(-c2cn3nccc3c(-c3cnn(C4CCCCCC4)c3)n2)cn1 [Example 2, 4-(1-cycloheptyl-1H-pyrazol-4-yl)-6-(1-methyl-1H-pyrazol-4-yl)pyrazolo[1,5-a]pyrazine]

Compound	IC50 [1] [nM]	IC50 [2, 5] [nM]	IC50 [3] [nM]	IC50 [4] [nM]	IC50 [2] [nM]
CCC(CC)n1cc(-c2nc(-c3cnn(C[C@@H]4CNCCO4)c3)cn3nccc23)cn1 [Example 127, (S)-2-((4-(4-(1-(pentan-3-yl)-1H-pyrazol-4-yl)pyrazolo[1,5-a]pyrazin-6-yl)-1H-pyrazol-1-yl)methyl)morpholine trifluoroacetic acid]	100 to 1000		100 to 1000	1000 to 10000	1000 to 10000
CCC(C)n1cc(-c2nc(-c3cnn(C[C@@H](O)CO)c3)cn3nccc23)cn1 (stereo partly drawn) [Example 67, (2R)-3-(4-(4-(1-(sec-butyl)-1H-pyrazol-4-yl)pyrazolo[1,5-a]pyrazin-6-yl)-1H-pyrazol-1-yl)propane-1,2-diol]	100 to 1000	100 to 1000	10 to 100	100 to 1000	
